The text below walks through data of patent US11834480B2 (priority 2020, dated 2023).

Assay [1] concerns SARS CoV-2 pseudotyped lentivirus. The format is cell-based. Particulars: read-out: observed IC50, inhibition of pseudotyped virus infection.
The target of assay [2] is L-form of SARS-CoV-2 HR1 (SARS CoV-2 HR1-biotin) (Severe acute respiratory syndrome coronavirus 2, UniProt P0DTC2). Briefly: biochemical. It is filed as binding.
The target in assay [3] is D-form of SARS-CoV-2 HR1 (SARS CoV-2 D-HR1-biotin) (Severe acute respiratory syndrome coronavirus 2, UniProt P0DTC2). The format is binding.

Square brackets hold non-standard residues; d marks the D form.

As usually defined, the IC50 is the concentration that inhibits the measured activity by half. One may read the Kd as the free concentration of one partner at which half of the binding sites on the other are occupied at equilibrium, for simple one-to-one binding. Regarding “[dA][dT][dV][dK][dF][dT][dY][dQ]G[dE][dE][dK][dQ][dV][dD][dI][dS][dK][dI][dK][dY][dV][dL][dR][dI]G[dQ][dA][dI][dW][dF][dR][dY][dD][dE]GGG[dA][dI]G[dN]G[dW][dV][dS][dE][dK][dD][dA][dP][dK][dE][dL][dL][dQ][dM][dL][dE][dK][dQ] [SEQ ID NO:12]”, the concentration for half-maximal inhibition (IC50) in assay [1] was 2200 nM. In assay [2], this substance had a Kd of 814 nM.
“ATVKFTYQGEEKQVDISKIKYVLRIGQAIWFRYDEGGGAIGNGWVSEEDAPKELLQMLEKR [SEQ ID NO:51]”: the “affinity for SARS CoV-2 D-HR1-biotin compared with parental SEQ ID NO: 11” value in assay [3] is “higher affinity”.
On the same count and under the same terms, the same measure for “ATVKFTYQGEEKQVDISKIKYVLRIGQAIWFRYDEGGGAIGNGWVSEEDAPKELLQMLGKR [SEQ ID NO:53]”: “higher affinity”.
